Test results as given in ChEMBL document CHEMBL3390831, “Design, synthesis, and structureactivity relationships of indole-3-carboxamides as novel water soluble cannabinoid CB1 receptor agonists” (Medchemcomm, 2010).

Legend:
Cannabinoid receptor 1 [1] = target: T1, Cannabinoid receptor 1 (Homo sapiens, UniProt P21554)
Description: Agonist activity at human cannabinoid CB1 receptor expressed in CHO cells co-expressing AP-1 response element after 5 hrs by luciferase reporter gene assay

[2] = Volume of distribution at steady state in ICR mouse plasma at 3 umol/kg, iv; type: ADME, cell-free; conditions: read-out: Vdss
Mus musculus [3] = experiment: Antinociceptive activity in ICR mouse assessed as increase of tail flick latency at 0.1 umol/kg, iv after 20 to 60 mins by tail flick latency test relative to control; type: functional
[4] = Tmax in ICR mouse plasma at 3 umol/kg, iv; type: ADME, cell-free
Homo sapiens [5] = organism: Homo sapiens; experiment: Selectivity ratio of Ki for human ERG to Ki for human cannabinoid CB1 receptor
[6] = Ratio of Cmax in brain to plasma in ICR mouse at 3 umol/kg, iv; type: ADME, cell-free; conditions: brain and plasma, read-out: BPR
Mus musculus [7] = experiment: Antinociceptive activity in ICR mouse assessed as inhibition of time spent licking formalin injected paw at 0.1 umol/kg, iv after 20 to 30 mins relative to control; type: functional
[8] = Aqueous solubility of the compound in phosphate buffered saline at pH 7 by shake-flask method; type: physicochemical
Mus musculus [9] = experiment: Antinociceptive activity in ICR mouse assessed as increase of tail flick latency at 0.3 umol/kg, iv after 20 to 60 mins by tail flick latency test relative to control; type: functional
Mus musculus [10] = experiment: Antinociceptive activity in iv dosed ICR mouse assessed as inhibition of time spent licking formalin injected paw after 5 to 30 mins; type: functional, organism-based
Cannabinoid receptor 1 [11] = target: T1, Cannabinoid receptor 1; experiment: biochemical
[12] = Elimination half life in ICR mouse plasma at 3 umol/kg, iv; type: ADME, cell-free; conditions: read-out: beta t1/2 (converted)
[13] = Intrinsic clearance in mouse liver microsomes; type: ADME; conditions: read-out: CLH
Mus musculus [14] = experiment: Antinociceptive activity in ICR mouse assessed as inhibition of time spent licking formalin injected paw at 0.3 umol/kg, iv after 20 to 30 mins relative to control; type: functional
Homo sapiens [15] = organism: Homo sapiens; experiment: Selectivity ratio of Ki for human ERG to Ki for human cannabinoid CB2 receptor
Mus musculus [16] = experiment: Antinociceptive activity in ICR mouse assessed as inhibition of time spent licking formalin injected paw at 0.03 umol/kg, iv after 20 to 30 mins relative to control; type: functional
[17] = Cmax in ICR mouse plasma at 3 umol/kg, iv; type: ADME, cell-free; set-up: dose 3 umol/kg, route intravenous
Mus musculus [18] = experiment: Antinociceptive activity in ICR mouse assessed as inhibition of time spent licking formalin injected paw at 0.03 umol/kg, iv after 5 to 10 mins relative to control; type: functional
Mus musculus [19] = experiment: Antinociceptive activity in ICR mouse assessed as inhibition of time spent licking formalin injected paw at 0.01 umol/kg, iv after 20 to 30 mins relative to control; type: functional
Mus musculus [20] = experiment: Antinociceptive activity in ICR mouse assessed as inhibition of time spent licking formalin injected paw at 0.01 umol/kg, iv after 5 to 10 mins relative to control; type: functional
Mus musculus [21] = experiment: Antinociceptive activity in ICR mouse assessed as increase of tail flick latency at 1 umol/kg, iv after 20 to 60 mins by tail flick latency test relative to control; type: functional
[22] = Aqueous solubility of the compound in citrate buffer at pH 5 by shake-flask method; type: physicochemical
[23] = Intrinsic clearance in human liver microsomes; type: ADME; conditions: read-out: CLH
Mus musculus [24] = experiment: Antinociceptive activity in ICR mouse assessed as inhibition of time spent licking formalin injected paw at 0.1 umol/kg, iv after 5 to 10 mins relative to control; type: functional
Mus musculus [25] = experiment: Antinociceptive activity in iv dosed ICR mouse assessed as increase of tail flick latency after 20 to 60 mins by tail flick latency test; type: functional, organism-based
[26] = Tmax in ICR mouse brain at 3 umol/kg, iv; type: ADME, tissue-based
[27] = Cmax in ICR mouse brain at 3 umol/kg, iv; type: ADME, tissue-based; set-up: dose 3 umol/kg, route intravenous
Cannabinoid receptor 2 = Cannabinoid receptor 2 (Homo sapiens, UniProt P34972); experiment: Displacement of [3H]-CP55940 from human cannabinoid CB2 receptor expressed in Sf9 insect cells after 70 mins by scintillation counting
Mus musculus [28] = experiment: Antinociceptive activity in ICR mouse assessed as inhibition of time spent licking formalin injected paw at 0.3 umol/kg, iv after 5 to 10 mins relative to control; type: functional
[29] = Clearance in ICR mouse plasma at 3 umol/kg, iv; type: ADME, cell-free
Brain = experiment: AUC (0 to 1 hr) in ICR mouse brain at 3 umol/kg, iv; type: ADME, tissue-based; set-up: time < 1 hr, dose 3 umol/kg, route intravenous; conditions: in vivo
Mus musculus [30] = experiment: Antinociceptive activity in iv dosed ICR mouse assessed as time taken for tail flick latency to return to within mean plus two standard deviations of baseline value following twice ED50 dose by tail flick latency test; type: functional
[31] = AUC in ICR mouse plasma at 3 umol/kg, iv; type: ADME, cell-free
[32] = Aqueous solubility of the compound in phosphate buffered saline at pH 7.1 by shake-flask method; type: physicochemical

T1 sequence (P21554 whole entry): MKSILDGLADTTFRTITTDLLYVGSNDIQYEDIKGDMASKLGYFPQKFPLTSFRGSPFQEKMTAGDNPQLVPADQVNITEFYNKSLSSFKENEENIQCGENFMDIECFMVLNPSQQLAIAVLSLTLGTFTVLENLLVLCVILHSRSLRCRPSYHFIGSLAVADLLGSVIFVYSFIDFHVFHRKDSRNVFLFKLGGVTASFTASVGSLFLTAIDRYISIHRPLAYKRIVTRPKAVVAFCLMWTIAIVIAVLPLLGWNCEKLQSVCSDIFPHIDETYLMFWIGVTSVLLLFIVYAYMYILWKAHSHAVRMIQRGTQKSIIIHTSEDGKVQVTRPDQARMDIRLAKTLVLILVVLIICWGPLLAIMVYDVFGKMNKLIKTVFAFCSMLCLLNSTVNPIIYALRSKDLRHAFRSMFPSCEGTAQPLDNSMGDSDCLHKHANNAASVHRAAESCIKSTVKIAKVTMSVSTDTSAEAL
Cannabinoid receptor 2, sequence (P34972 whole entry): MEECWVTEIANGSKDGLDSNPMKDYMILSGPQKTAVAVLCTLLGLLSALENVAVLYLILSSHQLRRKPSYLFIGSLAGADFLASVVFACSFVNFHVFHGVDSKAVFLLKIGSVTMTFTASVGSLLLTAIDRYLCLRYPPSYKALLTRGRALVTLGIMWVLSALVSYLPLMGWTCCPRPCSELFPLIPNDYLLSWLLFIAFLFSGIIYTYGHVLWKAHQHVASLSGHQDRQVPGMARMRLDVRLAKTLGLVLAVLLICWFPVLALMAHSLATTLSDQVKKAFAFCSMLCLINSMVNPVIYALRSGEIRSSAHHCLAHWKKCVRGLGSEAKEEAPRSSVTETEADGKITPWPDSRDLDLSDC

Work on `CCN1CCN(C(=O)c2cn(CC3CCCCCC3)c3c(OC)cccc23)CC1` yielded an EC50 (Cannabinoid receptor 1 [1]) of 794 nM.

`CCN1CCN(C(=O)c2cn(CC3CCCCC3)c3c(Cl)cccc23)CC1` showed an EC50 (Cannabinoid receptor 1 [1]) of 501 nM.

Work on `Cc1cccc2c1c(C(=O)N1CCN(C)CC1)cn2CC1CCCCC1` yielded an EC50 (Cannabinoid receptor 1 [1]) greater than 3160 nM.

In the case of `O=C(NCc1ccccc1)c1cn(CC2CCCCC2)c2ccccc12`, the EC50 (Cannabinoid receptor 1 [1]) is reported as 63.1 nM.

`COc1cccc2c(C(=O)N3C[C@@H](C)N(C)[C@@H](C)C3)cn(CC3CCCCC3)c12.Cl` showed a Vd [2] of 2 L/kg, an MPE (Mus musculus [3]) of 14.5% and a Tmax [4] of 3 min. For the same compound, the Ratio Ki (Homo sapiens [5]) was greater than 100, the Kp [6] was 2.7 and the inhibition in vivo at 0.1 µmol/kg (Mus musculus [7]) was 93.3%. For the same compound, the solubility thermodynamic [8] was 12 µg/mL, the MPE (Mus musculus [9]) was 72.3% and the inhibition (Mus musculus [10]) was “Dose-dependent effect”. For the same compound, the Ki (Cannabinoid receptor 1 [11]) was 1.26 nM, the half-life [12] was 19.2 min and the microsomal CLint [13] was greater than 270 µL/min/mg. The inhibition in vivo at 0.3 µmol/kg (Mus musculus [14]) was 99.8%, the Ratio Ki (Homo sapiens [15]) was greater than 100 and the inhibition in vivo at 0.03 µmol/kg (Mus musculus [16]) was 86.9%. It also gave a Cmax [17] of 593 ng/mL, an inhibition in vivo at 0.03 µmol/kg (Mus musculus [18]) of 49.5% and an inhibition in vivo at 0.01 µmol/kg (Mus musculus [19]) of 7.8%. It also gave an inhibition in vivo at 0.01 µmol/kg (Mus musculus [20]) of 16.4%, an MPE (Mus musculus [21]) of 100% and a solubility thermodynamic [22] greater than 4000 µg/mL. The microsomal CLint [23] was greater than 270 µL/min/mg, the inhibition in vivo at 0.1 µmol/kg (Mus musculus [24]) was 84% and the Activity (Mus musculus [25]) was “Dose-dependent effect”. It also gave a Tmax [26] of 3 min, a Cmax [27] of 1620 ng/g and a Ki (Cannabinoid receptor 2) of 0.794 nM. For the same compound, the inhibition in vivo at 0.3 µmol/kg (Mus musculus [28]) was 97.8%, the clearance [29] was 77.4 mL/min/kg and the AUC (Brain) was 616 ng·h/g. It also gave a Time (Mus musculus [30]) of 50 min and an AUC [31] of 253 ng·h/mL.

`CCN1CCN(C(=O)c2cn(CCN3CCOCC3)c3c(OC)cccc23)CC1` showed an EC50 (Cannabinoid receptor 1 [1]) greater than 3160 nM.

`CCN1CCN(C(=O)c2cn(CC3CCCCC3)c3c(OC)cccc23)C[C@H]1C.Cl` gave an EC50 (Cannabinoid receptor 1 [1]) of 631 nM, a solubility thermodynamic [32] of 74 µg/mL and a solubility thermodynamic [22] greater than 4000 µg/mL.

Compound `Cc1ccc2c(C(=O)N3CCN(C)CC3)cn(CC3CCCCC3)c2c1` has an EC50 (Cannabinoid receptor 1 [1]) of 316 nM.

For `Cc1ccc2c(c1)c(C(=O)N1CCN(C)CC1)cn2CC1CCCCC1`, the EC50 (Cannabinoid receptor 1 [1]) was 2000 nM.

In the case of `CCN1CCN(C(=O)c2cn(CC3CCCCC3)c3c(OC)cccc23)C[C@@H]1C.Cl`, the EC50 (Cannabinoid receptor 1 [1]) is reported as 39.8 nM, the solubility thermodynamic [32] is reported as 37 µg/mL and the solubility thermodynamic [22] is reported as greater than 4000 µg/mL.

In the case of `COc1cccc2c(C(=O)N3CCN(C)C(C)(C)C3)cn(CC3CCCCC3)c12.Cl`, the solubility thermodynamic [8] is reported as 129 µg/mL, the EC50 (Cannabinoid receptor 1 [1]) is reported as 158 nM and the solubility thermodynamic [22] is reported as 2160 µg/mL.

Work on `CCN1CCN(C(=O)c2cn(Cc3ccccc3)c3c(OC)cccc23)CC1` yielded an EC50 (Cannabinoid receptor 1 [1]) greater than 3160 nM.

Work on `CCN1CCN(C(=O)c2cn(CC3CCCCC3)c3cc(F)ccc23)CC1` yielded an EC50 (Cannabinoid receptor 1 [1]) of 251 nM.

`COc1cccc2c(C(=O)N3CCN(C)[C@H](C)C3)cn(CC3CCCCC3)c12.Cl` showed an EC50 (Cannabinoid receptor 1 [1]) of 126 nM, a solubility thermodynamic [32] of 88 µg/mL and a solubility thermodynamic [22] of 2860 µg/mL.

`CN1CCN(C(=O)c2cn(CC3CCCCC3)c3ccccc23)CC1` gave an EC50 (Cannabinoid receptor 1 [1]) of 501 nM.

Work on `CCN1CCN(C(=O)c2cn(CC3CCCCC3)c3c(OC)cccc23)CC1(C)C.Cl` yielded an EC50 (Cannabinoid receptor 1 [1]) of 126 nM, a solubility thermodynamic [32] of 181 µg/mL and a solubility thermodynamic [22] of 3830 µg/mL.

`CCN1CCN(C(=O)c2cn(CC3CCCCC3)c3cccc(F)c23)CC1` gave an EC50 (Cannabinoid receptor 1 [1]) of 251 nM.
